Measured values taken from article PMC12661400, “Oral bioavailable ITRI-148 degrades androgen receptor variants and overcomes antiandrogen resistance in advanced prostate cancer” (Neoplasia (New York, N.Y.), 2025).

Legend:
C4-2B/MDVR = experiment: MTT cell viability, 7 days; format: cell-based; conditions: 168 h
Description: (§1) Cells were seeded in 96-well plates and treated with drugs the next day. After 7 days, viability was assessed using MTT assay.
(§2) (C) Western blot analysis of AR and AR-V7 in C4-2B and C4-2B/MDVR cells after 48-hour ITRI-148 treatment. […] DEGs were determined relative to DMSO or pLKO.1 vector control. […] RPL13A was used for normalization. […] AR, AR-V7, and PSA expression in the drug-treated cells were detected across treatment timepoints.

CWR22Rv1 = experiment: MTT cell viability, 7 days; format: cell-based; conditions: 168 h
Description: as §1, §2

LNCaP95 = experiment: MTT cell viability, 7 days; format: cell-based; conditions: LNCaP-95, 168 h
Description: as §1, §2

LNCaP = experiment: MTT cell viability, 7 days; format: cell-based; conditions: Homo sapiens, 168 h
Description: as §1, §2

PC3 = experiment: MTT cell viability, 7 days; format: cell-based
Description: as §1, §2

PNT2 = experiment: MTT cell viability, 7 days; format: cell-based
Description: as §1, §2

VCaP = experiment: MTT cell viability, 7 days; format: cell-based; conditions: Homo sapiens, 168 h
Description: as §1, §2

[1] = Repeated-dose toxicity study: hematology; format: in vivo, Sprague-Dawley rats; conditions: rats
Description: (§3) Repeated-dose toxicity and toxicokinetic studies
(§4) Repeated-dose oral toxicity study and toxicokinetic (TK) profiling was conducted in Sprague-Dawley rats. ITRI-148 was administered once daily using oral gavage at doses of 100, 300, 600, and 1000 mg/kg/day for 7 consecutive days, followed by a 7-day recovery period. Each dose group comprised 3 animals designated for toxicokinetic (TK) analysis and 6 animals for dose-range finding (DRF) evaluation. Clinical observations, body weights, and food consumption were monitored daily throughout the dosing and recovery periods. […]
(§5) All samples were analyzed in duplicate. Hematology and serum clinical chemistry analyses were performed on Day 7 (end of dosing) and Day 14 (end of recovery). […]
(§6) All procedures were conducted in compliance with institutional animal care and use guidelines. […]
(§7) Targeting androgen receptor and the variants by an orally bioavailable
(§8) Proteolysis Targeting Chimeras compound in castration resistant prostate cancer

[2] = Repeated-dose toxicity study: serum clinical chemistry; format: in vivo, Sprague-Dawley rats; conditions: rat serum
Description: as §3, §4, §5, §6, §7, §8

[3] = Repeated-dose toxicity study: absolute organ weights; format: in vivo, Sprague-Dawley rats; conditions: rats
Description: as §3, §4
All samples were analyzed in duplicate. Hematology and serum clinical chemistry analyses were performed on Day 7 (end of dosing) and Day 14 (end of recovery). At necropsy, organ weights (including heart, liver, kidney, spleen, thymus, and adrenal glands) were recorded, and gross pathological changes were examined. All procedures were conducted in compliance with institutional animal care and use guidelines. […]
as §7, §8

[4] = PO 100 mg/kg/day 7 days, Day 14 (recovery)
[5] = PO 300 mg/kg/day 7 days, Day 14 (recovery)
[6] = PO 600 mg/kg/day 7 days, Day 14 (recovery)
[7] = PO 1000 mg/kg/day 7 days, Day 7
[8] = PO 1000 mg/kg/day 7 days, Day 14 (recovery)

O=C1CCC(N2C(=O)c3cccc(NCC(=O)N4CCC(N5CCC(C#Cc6ccc(C7CCN(C8=Nn9c(nnc9C(F)(F)F)CC8)CC7)cc6)CC5)CC4)c3C2=O)C(=O)N1 (stereo not shown) [ITRI-148]
IC50 (C4-2B/MDVR): 1.6 µM
IC50 (CWR22Rv1): 2.15 µM
IC50 (LNCaP95): 1.96 µM
IC50 (LNCaP): 0.17 µM
sensitivity of cell viability (PC3; AR-negative CRPC cells (PC3)): insensitive
IC50 (PC3; Homo sapiens, PC-3, PC3, MTT): > 10 µM
IC50 (PNT2; Homo sapiens, PNT2, MTT): > 10 µM
sensitivity of cell viability (PNT2; normal prostate epithelial cells (PNT2)): insensitive
IC50 (VCaP): 0.89 µM
HGB ([1]; PO 100 mg/kg/day 7 days, Day 7): 20.3 ± 0.2 g/dL
PLT ([1]; PO 100 mg/kg/day 7 days, Day 7): 915 ± 368 x103 cells/µL
RBC ([1]; PO 100 mg/kg/day 7 days, Day 7): 7.51 ± 0.13 x106 cells/µL
WBC ([1]; PO 100 mg/kg/day 7 days, Day 7): 8.72 ± 2.37 x103 cells/µL
HGB [1, 4]: 21.9 ± 3.2 g/dL
PLT [1, 4]: 1049 ± 231 x103 cells/µL
RBC [1, 4]: 8.18 ± 1.17 x106 cells/µL
WBC [1, 4]: 7.52 ± 5.51 x103 cells/µL
HGB ([1]; PO 300 mg/kg/day 7 days, Day 7): 20 ± 1.4 g/dL
PLT ([1]; PO 300 mg/kg/day 7 days, Day 7): 956 ± 108 x103 cells/µL
RBC ([1]; PO 300 mg/kg/day 7 days, Day 7): 7.15 ± 0.4 x106 cells/µL
WBC ([1]; PO 300 mg/kg/day 7 days, Day 7): 8.19 ± 2.89 x103 cells/µL
HGB [1, 5]: 24.1 ± 0.4 g/dL
PLT [1, 5]: 1128 ± 236 x103 cells/µL
RBC [1, 5]: 8.91 ± 0.17 x106 cells/µL
WBC [1, 5]: 9.56 ± 1.57 x103 cells/µL
HGB ([1]; PO 600 mg/kg/day 7 days, Day 7): 20.6 ± 1.9 g/dL
PLT ([1]; PO 600 mg/kg/day 7 days, Day 7): 986 ± 252 x103 cells/µL
RBC ([1]; PO 600 mg/kg/day 7 days, Day 7): 7.51 ± 0.53 x106 cells/µL
WBC ([1]; PO 600 mg/kg/day 7 days, Day 7): 8.68 ± 4.58 x103 cells/µL
HGB [1, 6]: 21.6 ± 0.8 g/dL
PLT [1, 6]: 1022 ± 446 x103 cells/µL
RBC [1, 6]: 7.87 ± 0.45 x106 cells/µL
WBC [1, 6]: 5.27 ± 2.39 x103 cells/µL
HGB [1, 7]: 20.7 ± 1.3 g/dL
PLT [1, 7]: 892 ± 66 x103 cells/µL
RBC [1, 7]: 7.52 ± 0.31 x106 cells/µL
WBC [1, 7]: 7.48 ± 2.72 x103 cells/µL
HGB [1, 8]: 21.6 ± 1 g/dL
PLT [1, 8]: 1140 ± 222 x103 cells/µL
RBC [1, 8]: 8.33 ± 0.35 x106 cells/µL
WBC [1, 8]: 8.28 ± 0.31 x103 cells/µL
ALT ([2]; PO 100 mg/kg/day 7 days, Day 7): 102.3 ± 40.6 U/L
AST ([2]; PO 100 mg/kg/day 7 days, Day 7): 188.7 ± 59 U/L
BUN ([2]; PO 100 mg/kg/day 7 days, Day 7): 17.73 ± 2.8 mg/dL
CRE ([2]; PO 100 mg/kg/day 7 days, Day 7): 0.63 ± 0.06 mg/dL
ALT [2, 4]: 84.3 ± 31.6 U/L
AST [2, 4]: 136.7 ± 10.4 U/L
BUN [2, 4]: 13.23 ± 1.12 mg/dL
CRE [2, 4]: 0.4 ± 0.1 mg/dL
ALT ([2]; PO 300 mg/kg/day 7 days, Day 7): 85.3 ± 10 U/L
AST ([2]; PO 300 mg/kg/day 7 days, Day 7): 177 ± 37.4 U/L
BUN ([2]; PO 300 mg/kg/day 7 days, Day 7): 20.53 ± 2.06 mg/dL
CRE ([2]; PO 300 mg/kg/day 7 days, Day 7): 0.63 ± 0.06 mg/dL
ALT [2, 5]: 60.7 ± 7.1 U/L
AST [2, 5]: 122 ± 5.3 U/L
BUN [2, 5]: 10.9 ± 1.13 mg/dL
CRE [2, 5]: 0.33 ± 0.06 mg/dL
ALT ([2]; PO 600 mg/kg/day 7 days, Day 7): 76.7 ± 2.1 U/L
AST ([2]; PO 600 mg/kg/day 7 days, Day 7): 196 ± 66 U/L
BUN ([2]; PO 600 mg/kg/day 7 days, Day 7): 21.8 ± 1.81 mg/dL
CRE ([2]; PO 600 mg/kg/day 7 days, Day 7): 0.57 ± 0.06 mg/dL
ALT [2, 6]: 69.3 ± 11.5 U/L
AST [2, 6]: 170 ± 41.7 U/L
BUN [2, 6]: 13.03 ± 0.83 mg/dL
CRE [2, 6]: 0.47 ± 0.06 mg/dL
ALT [2, 7]: 68 ± 15.4 U/L
AST [2, 7]: 132.7 ± 14.5 U/L
BUN [2, 7]: 16.77 ± 2.32 mg/dL
CRE [2, 7]: 0.57 ± 0.06 mg/dL
ALT [2, 8]: 94.3 ± 41.2 U/L
AST [2, 8]: 150.3 ± 43 U/L
BUN [2, 8]: 16.23 ± 4.71 mg/dL
CRE [2, 8]: 0.37 ± 0.06 mg/dL
Absolute organ weight: Heart ([3]; PO 100 mg/kg/day 7 days, Day 7): 1.417 ± 0.443 g
Absolute organ weight: Kidney ([3]; PO 100 mg/kg/day 7 days, Day 7): 2.656 ± 0.136 g
Absolute organ weight: Liver ([3]; PO 100 mg/kg/day 7 days, Day 7): 13.915 ± 1.565 g
Absolute organ weight: Spleen ([3]; PO 100 mg/kg/day 7 days, Day 7): 0.536 ± 0.112 g
Absolute organ weight: Thymus ([3]; PO 100 mg/kg/day 7 days, Day 7): 0.419 ± 0.079 g
Absolute organ weight: adrenal glands ([3]; PO 100 mg/kg/day 7 days, Day 7): 0.056 ± 0.012 g
Absolute organ weight: Heart [3, 4]: 1.139 ± 0.079 g
Absolute organ weight: Kidney [3, 4]: 2.65 ± 0.021 g
Absolute organ weight: Liver [3, 4]: 11.06 ± 0.639 g
Absolute organ weight: Spleen [3, 4]: 0.538 ± 0.05 g
Absolute organ weight: Thymus [3, 4]: 0.319 ± 0.039 g
Absolute organ weight: adrenal glands [3, 4]: 0.084 ± 0.059 g
Absolute organ weight: Heart ([3]; PO 300 mg/kg/day 7 days, Day 7): 1.369 ± 0.173 g
Absolute organ weight: Kidney ([3]; PO 300 mg/kg/day 7 days, Day 7): 2.966 ± 0.426 g
Absolute organ weight: Liver ([3]; PO 300 mg/kg/day 7 days, Day 7): 13.69 ± 1.088 g
Absolute organ weight: Spleen ([3]; PO 300 mg/kg/day 7 days, Day 7): 0.558 ± 0.035 g
Absolute organ weight: Thymus ([3]; PO 300 mg/kg/day 7 days, Day 7): 0.377 ± 0.079 g
Absolute organ weight: adrenal glands ([3]; PO 300 mg/kg/day 7 days, Day 7): 0.058 ± 0.022 g
Absolute organ weight: Heart [3, 5]: 1.252 ± 0.229 g
Absolute organ weight: Kidney [3, 5]: 2.748 ± 0.366 g
Absolute organ weight: Liver [3, 5]: 12.08 ± 0.721 g
Absolute organ weight: Spleen [3, 5]: 0.629 ± 0.088 g
Absolute organ weight: Thymus [3, 5]: 0.314 ± 0.042 g
Absolute organ weight: adrenal glands [3, 5]: 0.06 ± 0.016 g
Absolute organ weight: Heart ([3]; PO 600 mg/kg/day 7 days, Day 7): 1.269 ± 0.209 g
Absolute organ weight: Kidney ([3]; PO 600 mg/kg/day 7 days, Day 7): 2.661 ± 0.129 g
Absolute organ weight: Liver ([3]; PO 600 mg/kg/day 7 days, Day 7): 13.396 ± 2.201 g
Absolute organ weight: Spleen ([3]; PO 600 mg/kg/day 7 days, Day 7): 0.509 ± 0.093 g
Absolute organ weight: Thymus ([3]; PO 600 mg/kg/day 7 days, Day 7): 0.319 ± 0.054 g
Absolute organ weight: adrenal glands ([3]; PO 600 mg/kg/day 7 days, Day 7): 0.058 ± 0.001 g
Absolute organ weight: Heart [3, 6]: 1.242 ± 0.08 g
Absolute organ weight: Kidney [3, 6]: 2.759 ± 0.179 g
Absolute organ weight: Liver [3, 6]: 12.382 ± 0.877 g
Absolute organ weight: Spleen [3, 6]: 0.594 ± 0.066 g
Absolute organ weight: Thymus [3, 6]: 0.394 ± 0.041 g
Absolute organ weight: adrenal glands [3, 6]: 0.07 ± 0.027 g
Absolute organ weight: Heart [3, 7]: 1.259 ± 0.118 g
Absolute organ weight: Kidney [3, 7]: 3.022 ± 0.127 g
Absolute organ weight: Liver [3, 7]: 13.349 ± 1.256 g
Absolute organ weight: Spleen [3, 7]: 0.388 ± 0.035 g
Absolute organ weight: Thymus [3, 7]: 0.121 ± 0.021 g
Absolute organ weight: adrenal glands [3, 7]: 0.068 ± 0.012 g
Absolute organ weight: Heart [3, 8]: 1.306 ± 0.066 g
Absolute organ weight: Kidney [3, 8]: 2.763 ± 0.229 g
Absolute organ weight: Liver [3, 8]: 11.072 ± 0.774 g
Absolute organ weight: Spleen [3, 8]: 0.506 ± 0.023 g
Absolute organ weight: Thymus [3, 8]: 0.355 ± 0.119 g
Absolute organ weight: adrenal glands [3, 8]: 0.062 ± 0.009 g
